Test results as given in ChEMBL document CHEMBL4665642, “Anticancer profile of newly synthesized BRAF inhibitors possess 5-(pyrimidin-4-yl)imidazo[2,1-b]thiazole scaffold” (Bioorg Med Chem, 2019).

Legend:
Assay type in all cases: functional
Details in all cases: read-out: Activity
MDA-MB-468 = assay: Cytotoxicity against human MDA-MB-468 cells assessed as cell viability at 10 uM incubated for 48 hrs by sulforhodamine B assay relative to control
T47D = assay: Cytotoxicity against human T47D cells assessed as cell viability at 10 uM incubated for 48 hrs by sulforhodamine B assay relative to control
MDA-MB-231 = assay: Cytotoxicity against human MDA-MB-231 cells assessed as cell viability at 10 uM incubated for 48 hrs by sulforhodamine B assay relative to control
MCF7 = assay: Cytotoxicity against human MCF7 cells assessed as cell viability at 10 uM incubated for 48 hrs by sulforhodamine B assay relative to control
DU-145 = assay: Cytotoxicity against human DU-145 cells assessed as cell viability at 10 uM incubated for 48 hrs by sulforhodamine B assay relative to control
UO-31 = assay: Cytotoxicity against human UO-31 cells assessed as cell viability at 10 uM incubated for 48 hrs by sulforhodamine B assay relative to control
SN12C = assay: Cytotoxicity against human SN12C cells assessed as cell viability at 10 uM incubated for 48 hrs by sulforhodamine B assay relative to control
CAKI-1 = assay: Cytotoxicity against human CAKI-1 cells assessed as cell viability at 10 uM incubated for 48 hrs by sulforhodamine B assay relative to control
ACHN = assay: Cytotoxicity against human ACHN cells assessed as cell viability at 10 uM incubated for 48 hrs by sulforhodamine B assay relative to control
SK-OV-3 = assay: Cytotoxicity against human SK-OV-3 cells assessed as cell viability at 10 uM incubated for 48 hrs by sulforhodamine B assay relative to control
IGROV-1 = assay: Cytotoxicity against human IGROV-1 cells assessed as cell viability at 10 uM incubated for 48 hrs by sulforhodamine B assay relative to control
UACC-62 = assay: Cytotoxicity against human UACC-62 cells assessed as cell viability at 10 uM incubated for 48 hrs by sulforhodamine B assay relative to control
UACC-257 = assay: Cytotoxicity against human UACC-257 cells assessed as cell viability at 10 uM incubated for 48 hrs by sulforhodamine B assay relative to control
SK-MEL-5 = assay: Cytotoxicity against human SK-MEL-5 cells assessed as cell viability at 10 uM incubated for 48 hrs by sulforhodamine B assay relative to control
SK-MEL-28 = assay: Cytotoxicity against human SK-MEL-28 cells assessed as cell viability at 10 uM incubated for 48 hrs by sulforhodamine B assay relative to control
SK-MEL-2 = assay: Cytotoxicity against human SK-MEL-2 cells assessed as cell viability at 10 uM incubated for 48 hrs by sulforhodamine B assay relative to control
CCRF-CEM = assay: Cytotoxicity against human CCRF-CEM cells assessed as cell viability at 10 uM incubated for 48 hrs by sulforhodamine B assay relative to control
K562 = assay: Cytotoxicity against human K562 cells assessed as cell viability at 10 uM incubated for 48 hrs by sulforhodamine B assay relative to control
MOLT-4 = assay: Cytotoxicity against human MOLT-4 cells assessed as cell viability at 10 uM incubated for 48 hrs by sulforhodamine B assay relative to control
RPMI-8226 = assay: Cytotoxicity against human RPMI-8226 cells assessed as cell viability at 10 uM incubated for 48 hrs by sulforhodamine B assay relative to control
SR = assay: Cytotoxicity against human SR cells assessed as cell viability at 10 uM incubated for 48 hrs by sulforhodamine B assay relative to control
A549 = assay: Cytotoxicity against human A549 cells assessed as cell viability at 10 uM incubated for 48 hrs by sulforhodamine B assay relative to control
EKVX = assay: Cytotoxicity against human EKVX cells assessed as cell viability at 10 uM incubated for 48 hrs by sulforhodamine B assay relative to control
HOP-62 = assay: Cytotoxicity against human HOP-62 cells assessed as cell viability at 10 uM incubated for 48 hrs by sulforhodamine B assay relative to control
HOP-92 = assay: Cytotoxicity against human HOP-92 cells assessed as cell viability at 10 uM incubated for 48 hrs by sulforhodamine B assay relative to control
NCI-H226 = assay: Cytotoxicity against human NCI-H226 cells assessed as cell viability at 10 uM incubated for 48 hrs by sulforhodamine B assay relative to control
NCI-H23 = assay: Cytotoxicity against human NCI-H23 cells assessed as cell viability at 10 uM incubated for 48 hrs by sulforhodamine B assay relative to control
NCI-H322M = assay: Cytotoxicity against human NCI-H322M cells assessed as cell viability at 10 uM incubated for 48 hrs by sulforhodamine B assay relative to control
NCI-H460 = assay: Cytotoxicity against human NCI-H460 cells assessed as cell viability at 10 uM incubated for 48 hrs by sulforhodamine B assay relative to control
NCI-H522 = assay: Cytotoxicity against human NCI-H522 cells assessed as cell viability at 10 uM incubated for 48 hrs by sulforhodamine B assay relative to control
COLO 205 = assay: Cytotoxicity against human COLO 205 cells assessed as cell viability at 10 uM incubated for 48 hrs by sulforhodamine B assay relative to control
HCC 2998 = assay: Cytotoxicity against human HCC 2998 cells assessed as cell viability at 10 uM incubated for 48 hrs by sulforhodamine B assay relative to control
HCT-116 = assay: Cytotoxicity against human HCT-116 cells assessed as cell viability at 10 uM incubated for 48 hrs by sulforhodamine B assay relative to control
HCT-15 = assay: Cytotoxicity against human HCT-15 cells assessed as cell viability at 10 uM incubated for 48 hrs by sulforhodamine B assay relative to control
HCT-29 = assay: Cytotoxicity against human […] cells assessed as cell viability at 10 uM incubated for 48 hrs by sulforhodamine B assay relative to control
KM12 = assay: Cytotoxicity against human KM12 cells assessed as cell viability at 10 uM incubated for 48 hrs by sulforhodamine B assay relative to control
SW-620 = assay: Cytotoxicity against human SW-620 cells assessed as cell viability at 10 uM incubated for 48 hrs by sulforhodamine B assay relative to control
SF-268 = assay: Cytotoxicity against human SF-268 cells assessed as cell viability at 10 uM incubated for 48 hrs by sulforhodamine B assay relative to control
SNB-19 = assay: Cytotoxicity against human SNB-19 cells assessed as cell viability at 10 uM incubated for 48 hrs by sulforhodamine B assay relative to control
SNB-75 = assay: Cytotoxicity against human SNB-75 cells assessed as cell viability at 10 uM incubated for 48 hrs by sulforhodamine B assay relative to control
LOX IMVI = assay: Cytotoxicity against human LOX IMVI cells assessed as cell viability at 10 uM incubated for 48 hrs by sulforhodamine B assay relative to control

**Q.** For `O=S(=O)(NCCNc1nccc(-c2c(-c3cccc(F)c3)nc3sccn23)n1)c1ccc(Br)cc1`, which viability at 10 µM (MDA-MB-468) is on record?
**A.** 78.3%

**Q.** What about the viability at 10 µM (T47D) of the same compound?
**A.** 30.5%

**Q.** What about the viability at 10 µM (MDA-MB-231) of the same compound?
**A.** 69.7%

**Q.** And the viability at 10 µM (MCF7)?
**A.** 23.5%

**Q.** And the viability at 10 µM (DU-145)?
**A.** 52.5%

**Q.** What about the viability at 10 µM (UO-31) of the same compound?
**A.** 21.2%

**Q.** And the viability at 10 µM (SN12C)?
**A.** 42.9%

**Q.** And the viability at 10 µM (CAKI-1)?
**A.** 35.1%

**Q.** And the viability at 10 µM (ACHN)?
**A.** 30.2%

**Q.** And the viability at 10 µM (SK-OV-3)?
**A.** 77.3%

**Q.** What about the viability at 10 µM (IGROV-1) of the same compound?
**A.** 8.47%

**Q.** And the viability at 10 µM (UACC-62)?
**A.** 35.8%

**Q.** And the viability at 10 µM (UACC-257)?
**A.** 82%

**Q.** What about the viability at 10 µM (SK-MEL-5) of the same compound?
**A.** 31.5%

**Q.** And the viability at 10 µM (SK-MEL-28)?
**A.** 69.1%

**Q.** And the viability at 10 µM (SK-MEL-2)?
**A.** 71.7%

**Q.** What about the viability at 10 µM (CCRF-CEM) of the same compound?
**A.** 51%

**Q.** What about the viability at 10 µM (K562) of the same compound?
**A.** 38.7%

**Q.** What about the viability at 10 µM (MOLT-4) of the same compound?
**A.** 35.7%

**Q.** And the viability at 10 µM (RPMI-8226)?
**A.** 58%

**Q.** What about the viability at 10 µM (SR) of the same compound?
**A.** 31.7%

**Q.** What about the viability at 10 µM (A549) of the same compound?
**A.** 34.1%

**Q.** And the viability at 10 µM (EKVX)?
**A.** 59.5%

**Q.** And the viability at 10 µM (HOP-62)?
**A.** 83.3%

**Q.** And the viability at 10 µM (HOP-92)?
**A.** 76.7%

**Q.** And the viability at 10 µM (NCI-H226)?
**A.** 41.2%

**Q.** What about the viability at 10 µM (NCI-H23) of the same compound?
**A.** 72.6%

**Q.** And the viability at 10 µM (NCI-H322M)?
**A.** 61%

**Q.** What about the viability at 10 µM (NCI-H460) of the same compound?
**A.** 27.8%

**Q.** What about the viability at 10 µM (NCI-H522) of the same compound?
**A.** 62.6%

**Q.** And the viability at 10 µM (COLO 205)?
**A.** 36.4%

**Q.** And the viability at 10 µM (HCC 2998)?
**A.** 79.5%

**Q.** And the viability at 10 µM (HCT-116)?
**A.** 33.9%

**Q.** And the viability at 10 µM (HCT-15)?
**A.** 29.2%

**Q.** And the viability at 10 µM (HCT-29)?
**A.** 28.2%

**Q.** And the viability at 10 µM (KM12)?
**A.** 42.5%

**Q.** And the viability at 10 µM (SW-620)?
**A.** 54.8%

**Q.** What about the viability at 10 µM (SF-268) of the same compound?
**A.** 53%

**Q.** And the viability at 10 µM (SNB-19)?
**A.** 59.3%

**Q.** And the viability at 10 µM (SNB-75)?
**A.** 75.3%

**Q.** What about the viability at 10 µM (LOX IMVI) of the same compound?
**A.** 38.5%
